Measured values: the NIST ThermoML archive (doi:10.1021/je900665a)

Conditions: Capillary rise

CC(C)OC(C)C [diisopropyl ether]
Conditions | surface tension liquid-gas [mN/m]
248.07 K | 22.7
253.23 K | 22.06
258.1 K | 21.55
263.18 K | 21.02
268.33 K | 20.52
273.46 K | 19.93
278.5 K | 19.26
283.18 K | 18.81
288.18 K | 18.3
293.16 K | 17.82
298.1 K | 17.26
303.17 K | 16.76
308.08 K | 16.18
313.27 K | 15.66
318.17 K | 15.09
323.19 K | 14.58
328.12 K | 14.1
333.12 K | 13.68
338.11 K | 13.15
343.1 K | 12.57
348.1 K | 12.11
353.1 K | 11.57
358.15 K | 11.01
363.17 K | 10.56
368.17 K | 10.04
373.17 K | 9.698

CCOCC [diethyl ether]
Conditions | surface tension liquid-gas [mN/m]
258.17 K | 21.49
263.17 K | 20.76
268.18 K | 20.13
273.18 K | 19.62
278.18 K | 18.97
283.18 K | 18.46
288.18 K | 17.82
293.16 K | 17.15
298.1 K | 16.58
303.17 K | 16
308.11 K | 15.44
313.19 K | 14.87
318.16 K | 14.14
323.16 K | 13.61
328.12 K | 12.96
333.18 K | 12.46
338.17 K | 11.92
343.17 K | 11.28
348.17 K | 10.75
353.19 K | 10.19
358.18 K | 9.575
363.16 K | 9.014
368.18 K | 8.459
373.17 K | 7.914

CCCCCCC [heptane]
Conditions | surface tension liquid-gas [mN/m]
298.13 K | 20
303.18 K | 19.58
308.12 K | 18.97
313.18 K | 18.41
318.17 K | 17.97
323.2 K | 17.48
328.15 K | 16.92
